Measurements published in patent US12077503B2, “Substituted cyclic amides and their use as herbicides” (FMC CORPORATION, priority 2015, dated 2024).

How the values were obtained:
Format in all cases: in vivo
[1] = tested on: blackgrass (Alopecurus myosuroides); assay: Test A postemergence; conditions: Alopecurus myosuroides, post-emergence, 240 h, Postemergence, read-out: Blackgrass plant response rating (0 to 100 scale); for pest or weed control at 125 g/ha: 125 g ai/ha, visual rating about 10 d after treatment; for pest or weed control at 31 g/ha: 31 g ai/ha, 0 is no effect, 100 is complete control
Method in brief: (§1)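 Each rating is a visual injury score from 0 to 100 given about 10 d after treatment, judged against untreated controls kept alongside in the greenhouse. In loam soil–sand blend, seeds got a preemergence directed soil spray, while postemergence plants were 2 to 10 cm tall at spraying.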

[2] = tested on: giant foxtail (Setaria faberii); assay: Test A postemergence; conditions: Setaria faberi, post-emergence, 240 h, Postemergence, read-out: Foxtail, Giant plant response rating (0 to 100 scale); for pest or weed control at 125 g/ha: 125 g ai/ha, visual rating about 10 d after treatment; for pest or weed control at 31 g/ha: 31 g ai/ha, 0 is no effect, 100 is complete control
Method in brief: as §1

[3] = tested on: Galium (catchweed bedstraw, Galium aparine); assay: Test A postemergence; conditions: Galium, post-emergence, 240 h, Postemergence, read-out: Galium plant response rating (0 to 100 scale); for pest or weed control at 125 g/ha: 125 g ai/ha, visual rating about 10 d after treatment; for pest or weed control at 31 g/ha: 31 g ai/ha, 0 is no effect, 100 is complete control
Method in brief: as §1

[4] = tested on: wheat (Triticum aestivum); assay: Test A postemergence; conditions: Triticum aestivum, post-emergence, 240 h, Postemergence, read-out: Wheat plant response rating (0 to 100 scale); for plant injury at 125 g/ha: 125 g ai/ha, visual rating about 10 d after treatment; for plant injury at 31 g/ha: 31 g ai/ha, 0 is no effect, 100 is complete control
Method in brief: as §1

[5] = tested on: pigweed (Amaranthus retroflexus); assay: Test A postemergence; conditions: Amaranthus retroflexus, post-emergence, 240 h, Postemergence, read-out: Pigweed plant response rating (0 to 100 scale); for pest or weed control at 125 g/ha: 125 g ai/ha, visual rating about 10 d after treatment; for pest or weed control at 31 g/ha: 31 g ai/ha, 0 is no effect, 100 is complete control
Method in brief: as §1

[6] = tested on: ryegrass, Italian (Italian ryegrass, Lolium multiflorum); assay: Test A postemergence; conditions: Lolium multiflorum, post-emergence, 240 h, Postemergence, read-out: Ryegrass, Italian plant response rating (0 to 100 scale); for pest or weed control at 125 g/ha: 125 g ai/ha, visual rating about 10 d after treatment; for pest or weed control at 31 g/ha: 31 g ai/ha, 0 is no effect, 100 is complete control
Method in brief: as §1

Kochia (Kochia scoparia) [7] = assay: Test A postemergence; conditions: Bassia scoparia, post-emergence, 240 h, Postemergence, read-out: Kochia plant response rating (0 to 100 scale); for pest or weed control at 125 g/ha: 125 g ai/ha, visual rating about 10 d after treatment; for pest or weed control at 31 g/ha: 31 g ai/ha, 0 is no effect, 100 is complete control
Method in brief: as §1

corn (Zea mays) = assay: Test A postemergence; conditions: Zea mays, post-emergence, 240 h, Postemergence, read-out: Corn plant response rating (0 to 100 scale); for plant injury at 125 g/ha: 125 g ai/ha, visual rating about 10 d after treatment; for plant injury at 31 g/ha: 31 g ai/ha, 0 is no effect, 100 is complete control
Method in brief: as §1

[8] = tested on: ragweed (common ragweed, Ambrosia elatior); assay: Test A postemergence; conditions: Ambrosia artemisiifolia, post-emergence, 240 h, Postemergence, read-out: Ragweed plant response rating (0 to 100 scale); for pest or weed control at 125 g/ha: 125 g ai/ha, visual rating about 10 d after treatment; for pest or weed control at 31 g/ha: 31 g ai/ha, 0 is no effect, 100 is complete control
Method in brief: as §1

[9] = tested on: barnyardgrass (Echinochloa crus-galli); assay: Test A postemergence; conditions: Echinochloa crus-galli, post-emergence, 240 h, Postemergence; for pest or weed control at 125 g/ha: 125 g ai/ha, visual rating about 10 d after treatment, read-out: Barnyardgrass plant response rating (0 to 100 scale, 0 no effect, 100 complete control); for pest or weed control at 31 g/ha: 31 g ai/ha, 0 is no effect, 100 is complete control, read-out: Barnyardgrass plant response rating (0 to 100 scale)
Method in brief: as §1

[10] = tested on: giant foxtail (Setaria faberii); assay: Test A preemergence; conditions: Setaria faberi, pre-emergence, 240 h, Preemergence; for pest or weed control at 31 g/ha: 31 g ai/ha, 0 to 100 scale where 0 is no effect and 100 is complete control, read-out: Foxtail, Giant plant response rating; for pest or weed control at 125 g/ha: 125 g ai/ha, 0 to 100 scale (0 no effect, 100 complete control), read-out: Plant response rating, Foxtail, Giant
Method in brief: as §1

[11] = tested on: pigweed (Amaranthus retroflexus); assay: Test A preemergence; conditions: Amaranthus retroflexus, pre-emergence, 240 h, Preemergence; for pest or weed control at 31 g/ha: 31 g ai/ha, 0 to 100 scale where 0 is no effect and 100 is complete control, read-out: Pigweed plant response rating; for pest or weed control at 125 g/ha: 125 g ai/ha, 0 to 100 scale (0 no effect, 100 complete control), read-out: Plant response rating, Pigweed
[12] = tested on: ryegrass, Italian (Italian ryegrass, Lolium multiflorum); assay: Test A preemergence; conditions: Lolium multiflorum, pre-emergence, 240 h, Preemergence; for pest or weed control at 31 g/ha: 31 g ai/ha, 0 to 100 scale where 0 is no effect and 100 is complete control, read-out: Ryegrass, Italian plant response rating; for pest or weed control at 125 g/ha: 125 g ai/ha, 0 to 100 scale (0 no effect, 100 complete control), read-out: Plant response rating, Ryegrass, Italian
Method in brief: as §1

Kochia (Kochia scoparia) [13] = assay: Test A preemergence; conditions: Bassia scoparia, pre-emergence, 240 h, Preemergence; for pest or weed control at 31 g/ha: 31 g ai/ha, 0 to 100 scale where 0 is no effect and 100 is complete control, read-out: Kochia plant response rating; for pest or weed control at 125 g/ha: 125 g ai/ha, 0 to 100 scale (0 no effect, 100 complete control), read-out: Plant response rating, Kochia
Method in brief: as §1

[14] = tested on: ragweed (common ragweed, Ambrosia elatior); assay: Test A preemergence; conditions: Ambrosia artemisiifolia, pre-emergence, 240 h, Preemergence; for pest or weed control at 31 g/ha: 31 g ai/ha, 0 to 100 scale where 0 is no effect and 100 is complete control, read-out: Ragweed plant response rating; for pest or weed control at 125 g/ha: 125 g ai/ha, 0 to 100 scale (0 no effect, 100 complete control), read-out: Plant response rating, Ragweed
Method in brief: as §1

[15] = tested on: barnyardgrass (Echinochloa crus-galli); assay: Test A preemergence; conditions: Echinochloa crus-galli, pre-emergence, 240 h, Preemergence; for pest or weed control at 31 g/ha: 31 g ai/ha, 0 to 100 scale where 0 is no effect and 100 is complete control, read-out: Barnyardgrass plant response rating; for pest or weed control at 125 g/ha: 125 g ai/ha, 0 to 100 scale (0 no effect, 100 complete control), read-out: Plant response rating, Barnyardgrass
Method in brief: as §1

[16] = tested on: ducksalad (Heteranthera limosa); assay: Test B flooded paddy test; conditions: Heteranthera limosa, 360 h, Flood, 250 g ai/ha; visually evaluated after 13 to 15 d; read-out: Plant response rating, Ducksalad (0 to 100 scale where 0 is no effect and 100 is complete control)
Method in brief: (§2)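 Visual ratings (0 none to 100 complete control) are relative to untreated plants, taken 13–15 d after treatment in a greenhouse. Test material went straight into floodwater standing 3 cm above the soil, kept constant, on plants at the 2-leaf stage.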

[17] = tested on: sedge, umbrella (small-flower umbrella sedge, Cyperus difformis); assay: Test B flooded paddy test; conditions: Cyperus difformis, 360 h, Flood, 250 g ai/ha; visually evaluated after 13 to 15 d; read-out: Plant response rating, Sedge, Umbrella (0 to 100 scale where 0 is no effect and 100 is complete control)
Method in brief: as §2

rice (Oryra sativa) = assay: Test B flooded paddy test; conditions: Oryza sativa, 360 h, Flood, 250 g ai/ha; visually evaluated after 13 to 15 d; read-out: Plant response rating, Rice (0 to 100 scale where 0 is no effect and 100 is complete control)
Method in brief: as §2

[18] = tested on: barnyardgrass (Echinochloa crus-galli); assay: Test B flooded paddy test; conditions: Echinochloa crus-galli, 360 h, Flood, 250 g ai/ha; visually evaluated after 13 to 15 d; read-out: Plant response rating, Barnyardgrass (0 to 100 scale where 0 is no effect and 100 is complete control)
Method in brief: as §2

| Compound | pest or weed control at 125 g/ha [1] [%] | pest or weed control at 31 g/ha [1] [%] | pest or weed control at 125 g/ha [2] [%] | pest or weed control at 31 g/ha [2] [%] | pest or weed control at 125 g/ha [3] [%] | pest or weed control at 31 g/ha [3] [%] | plant injury at 125 g/ha [4] [%] | plant injury at 31 g/ha [4] [%] | pest or weed control at 125 g/ha [5] [%] | pest or weed control at 31 g/ha [5] [%] | pest or weed control at 125 g/ha [6] [%] | pest or weed control at 31 g/ha [6] [%] | pest or weed control at 125 g/ha (Kochia (Kochia scoparia) [7]) [%] | pest or weed control at 31 g/ha (Kochia (Kochia scoparia) [7]) [%] | plant injury at 125 g/ha (corn (Zea mays)) [%] | plant injury at 31 g/ha (corn (Zea mays)) [%] | pest or weed control at 125 g/ha [8] [%] | pest or weed control at 31 g/ha [8] [%] | pest or weed control at 125 g/ha [9] [%] | pest or weed control at 31 g/ha [9] [%] | further results |
| --- | --- | --- | --- | --- | --- | --- | --- | --- | --- | --- | --- | --- | --- | --- | --- | --- | --- | --- | --- | --- | --- |
| Cc1cccc([C@H]2CN(C)C(=O)[C@@H]2C(=O)Nc2cnccc2C)c1 [Compound 1344] | 0 | 0 | 0 | 0 | 0 | 0 | 0 | 0 | 0 | 0 | 0 | 0 | 0 | 0 | 0 | 0 | 0 | 0 | 0 | 0 | pest or weed control at 31 g/ha [10]: 0%; pest or weed control at 125 g/ha [10]: 0%; pest or weed control at 31 g/ha [11]: 0%; pest or weed control at 125 g/ha [11]: 0%; pest or weed control at 31 g/ha [12]: 0%; pest or weed control at 125 g/ha [12]: 0%; pest or weed control at 31 g/ha (Kochia (Kochia scoparia) [13]): 0%; pest or weed control at 125 g/ha (Kochia (Kochia scoparia) [13]): 0%; pest or weed control at 31 g/ha [14]: 0%; pest or weed control at 125 g/ha [14]: 0%; pest or weed control at 31 g/ha [15]: 0%; pest or weed control at 125 g/ha [15]: 0%; pest or weed control at 250 g/ha [16]: 0%; pest or weed control at 250 g/ha [17]: 0%; pest or weed control at 250 g/ha (rice (Oryra sativa)): 0%; pest or weed control at 250 g/ha [18]: 0% |
| CN1C[C@H](c2cccc(C(F)(F)F)c2)[C@@H](C(=O)Nc2ccc(F)nc2F)C1=O [Compound 1348] | 50 | 50 | 90 | 90 | 70 | 50 | 60 | 40 | 0 | 0 | 30 | 20 | 50 | 0 | 80 | 50 | 20 | 0 | 90 | 90 | pest or weed control at 31 g/ha [10]: 100%; pest or weed control at 125 g/ha [10]: 100%; pest or weed control at 31 g/ha [11]: 0%; pest or weed control at 125 g/ha [11]: 100%; pest or weed control at 31 g/ha [12]: 20%; pest or weed control at 125 g/ha [12]: 60%; pest or weed control at 31 g/ha (Kochia (Kochia scoparia) [13]): 0%; pest or weed control at 125 g/ha (Kochia (Kochia scoparia) [13]): 80%; pest or weed control at 31 g/ha [14]: 80%; pest or weed control at 125 g/ha [14]: 20%; pest or weed control at 31 g/ha [15]: 90%; pest or weed control at 125 g/ha [15]: 100%; pest or weed control at 250 g/ha [16]: 98%; pest or weed control at 250 g/ha [17]: 0%; pest or weed control at 250 g/ha (rice (Oryra sativa)): 0%; pest or weed control at 250 g/ha [18]: 90% |
